Laboratory results published in patent US12604900B2, “Penflufen as a wood preservative against wood- destroying basidiomy cetes” (LANXESS Deutschland GmbH, priority 2010, dated 2026).
Like-named read-outs stand apart in the source and are kept apart here.

Experiments:
Coriolus versicolor [1] = assay: Synergism test (MIC of radial hyphae growth, SI by Kull); format: cell-based; conditions: Trametes versicolor
Method: (§1) Mycelium pieces were punched out of a colony of the wood-destroying fungus in question and incubated on a malt extract/peptone-containing nutrient agar at 26° C. The growth of the hyphae with and without active compound was compared. The minimum inhibitory concentration (MIC) stated was the concentration at which the radial hyphae growth was suppressed completely.
(§2) The synergism was determined using the method described by Kull et al. (F. C. Kull, P. C. Eismann, H. D. Sylvestrowicz, R. L. Mayer, Applied Microbiology 1961, 9, 538-541).

Poria placenta [2] = assay: as above; format: cell-based
Method: as §1, §2

Coniophora puteana [3] = assay: as above; format: cell-based
Method: as §1, §2

Lentinus tigrinus [4] = assay: Inhibition test with giant colonies of wood-destroying basidiomycetes; format: cell-based; conditions: 168 h, 1 ppm active compound, agar, 26° C., about 1 week
Method: (§3) Mycelium pieces were punched out of colonies of Coniophora puteana, Poria placenta, Lentinus tigrinus, Coriolus versicolor and Gloeophyllum trabeum and incubated on an agar nutrient soil at 26° C. The inhibition of the growth of the hyphae on active compound-comprising nutrient soil was compared to the longitudinal growth without addition of active compound and rated as inhibition in percent (incubation time: about 1 week, depending on the fungal growth of the comparative sample without active compound).

Coniophora puteana [5] = assay: as above; format: cell-based; conditions: 168 h, 1 ppm active compound, agar, 26° C., about 1 week
Method: as §3

Gloeophyllum trabeum [6] = assay: as above; format: cell-based; conditions: 168 h, 1 ppm active compound, agar, 26° C., about 1 week
Method: as §3

Coriolus versicolor [7] = assay: as above; format: cell-based; conditions: Trametes versicolor, 168 h; 1 ppm active compound, agar, 26° C., about 1 week
Method: as §3

Poria placenta [8] = assay: as above; format: cell-based; conditions: 168 h; 1 ppm active compound, agar, 26° C., about 1 week
Method: as §3

Lentinus tigrinus [9] = assay: Synergism test (MIC of radial hyphae growth, SI by Kull); format: cell-based; conditions: read-out: MIC (ppm) Lentinus tigrinus
Method: as §1, §2

Stereum sanguinolentum = assay: as above; format: cell-based; conditions: 2.4 penflufen and tebuconazole, read-out: MIC against Stereum sanguinolentum (ppm)
Method: as §1, §2

Coniophora puteana [10] = assay: Activity test analogously to EN113 on drenched pine specimens; conditions: for Loss of mass [%]: pine, 6 weeks, mean of 6 specimens (untreated: 24)
Method: (§4) Penflufen (I) was tested analogously to the EN113 standard test for activity against wood-destroying fungi. In contrast to the standard test, smaller pieces of wood were used and the pieces of wood were exposed to attack by the fungi for a shorter period of time.
(§5) To this end, dried test specimen (25×15×4 mm) made of pine (Pinus sylvestris) were in each case vacuum-drenched with solutions of penflufen (I) in toluene. From the concentration of penflufen (I) in the drench solution and the uptake of the drench solution into the test specimen, the amount of active compound taken up by the test specimen (retention) was calculated. The test specimens were dried and then weighed. To prevent falsifying colonisation by foreign pathogens, the test specimen were sterilised with y rays.
The test specimens were brought into contact with the wood-destroying organism Coniophora puteana and stored for 6 weeks. The test pieces of wood were then cleaned, dried and weighed. This was used to calculate the loss of mass. For each retention, the mean of 6 test specimens was determined.

Poria placenta [11] = assay: as above; conditions: for Loss of mass [%]: pine, 6 weeks, mean of 6 specimens (untreated: 20)
Method: as §4, §5
The test specimen were brought into contact with the wood-destroying organism Poria placenta and stored for 6 weeks. The test pieces of wood were then cleaned, dried and weighed. This was used to calculate the loss of mass. For each retention, the mean of 6 test specimens was determined.

Gloeophyllum trabeum [12] = assay: Synergism test (MIC of radial hyphae growth, SI by Kull); format: cell-based; conditions: 2.3 penflufen and copper(II) oxide, read-out: MIC against Gloeophyllum trabeum (ppm)
Method: Mycelium pieces were punched out of a colony of the wood-destroying fungus in question and incubated on a malt extract/peptone-containing nutrient agar at 26° C. […] The minimum inhibitory concentration (MIC) stated was the concentration at which the radial hyphae growth was suppressed completely.

[13] = 2.6 penflufen and permethrin, read-out: MIC against Poria placenta (ppm)
[14] = 2.5 penflufen and propiconazole, read-out: MIC against Coniophora puteana (ppm)
[15] = 2.9 penflufen and bifenthrin, read-out: MIC against Coriolus versicolor (ppm)
[16] = 2.1 penflufen and thiabendazole, malt extract/peptone agar 26° C., read-out: MIC against Coriolus versicolor (ppm)
[17] = result in words, EN113-like test
[18] = retention of penflufen 50 g/m^3
[19] = 2.2 penflufen and fenpropimorph
[20] = 2.2 penflufen and fenpropimorph, read-out: MIC (ppm) Coniophora puteana

Work on CC1(C)C(C=C(Cl)Cl)C1C(=O)OC(C#N)c1cccc(Oc2ccccc2)c1 (stereo not shown) [cypermethrin, reference compound] yielded an MIC (Coriolus versicolor [1]; read-out: MIC (ppm) Coriolus versicolor) of over 100 µg/mL and an MIC (Poria placenta [2]; read-out: MIC (ppm) Poria placenta) of over 100 µg/mL.
CC1(C)C(C=C(Cl)Cl)C1C(=O)OCc1cccc(Oc2ccccc2)c1 (stereo not shown) [permethrin, reference compound] was tested, and the MIC (Poria placenta [2]; [13]) was over 100 µg/mL.
Work on CCCC1COC(Cn2cncn2)(c2ccc(Cl)cc2Cl)O1 (stereo not shown) [propiconazole, reference compound] yielded an MIC (Coniophora puteana [3]; [14]) of 3 µg/mL.
For C=C(c1ccccc1NC(=O)c1c(C)nn(C)c1F)C(C)C [III], the inhibition at 1 ppm (Lentinus tigrinus [4]) was 37%, the inhibition at 1 ppm (Coniophora puteana [5]) was 25% and the inhibition at 1 ppm (Gloeophyllum trabeum [6]) was 18%. The inhibition at 1 ppm (Coriolus versicolor [7]) was 78% and the inhibition at 1 ppm (Poria placenta [8]) was 45%.
With CCCN(CCOc1c(Cl)cc(Cl)cc1Cl)C(=O)n1ccnc1 [prochloraz, reference compound] the MIC (Lentinus tigrinus [9]) was 20 µg/mL and the MIC (Coniophora puteana [3]; read-out: MIC (ppm) Coniophora puteana) was over 30 µg/mL.
In the case of CC(C)(C)C(O)(CCc1ccc(Cl)cc1)Cn1cncn1 (stereo not shown) [tebuconazole, reference compound], the MIC (Stereum sanguinolentum) is reported as 6 µg/mL.
Cc1c(COC(=O)[C@@H]2[C@H](/C=C(\Cl)C(F)(F)F)C2(C)C)cccc1-c1ccccc1 (racemic) [bifenthrin, reference compound] showed an MIC (Coriolus versicolor [1]; [15]) of 60 µg/mL.
CCOc1ccc(C(C)(C)COCc2cccc(Oc3ccccc3)c2)cc1 [etofenprox, reference compound] was tested, and the MIC (Poria placenta [2]; 2.7 penflufen and etofenprox, read-out: MIC against Poria placenta (ppm)) was over 100 µg/mL.
c1ccc2[nH]c(-c3cscn3)nc2c1 [thiabendazole, reference compound] gave an MIC (Coriolus versicolor [1]; [16]) of 3 µg/mL.
With CCCC(C)c1ccccc1NC(=O)c1c(C)nn(C)c1F (stereo not shown) [II] the inhibition at 1 ppm (Lentinus tigrinus [4]) was 17%, the inhibition at 1 ppm (Coniophora puteana [5]) was 12% and the inhibition at 1 ppm (Gloeophyllum trabeum [6]) was 11%. For the same compound, the inhibition at 1 ppm (Coriolus versicolor [7]) was 15% and the inhibition at 1 ppm (Poria placenta [8]) was 3%.
For Cc1nn(C)c(F)c1C(=O)Nc1ccccc1C(C)CC(C)C (stereo not shown) [penflufen], the “activity against the wood-destroying fungus Coniophora puteana” value (Coniophora puteana [10]; [17]) was “very good activity”, the “Loss of mass [%]” value (Coniophora puteana [10]; [18]) was 0% and the “Loss of mass [%]” value (Coniophora puteana [10]; retention of penflufen 103 g/m^3) was 0%. For the same compound, the “activity against the wood-destroying fungus Poria placenta” value (Poria placenta [11]; [17]) was “very good activity”, the “Loss of mass [%]” value (Poria placenta [11]; [18]) was 0% and the “Loss of mass [%]” value (Poria placenta [11]; retention of penflufen 102 g/m^3) was 0%. It also gave an MIC (Lentinus tigrinus [9]; [19]) of 0.5 µg/mL, an MIC (Lentinus tigrinus [9]; 2.8 penflufen and prochloraz) of 0.3 µg/mL and an MIC (Coniophora puteana [3]; [20]) of 1 µg/mL. It also gave an MIC (Coniophora puteana [3]; [14]) of 3 µg/mL, an MIC (Coniophora puteana [3]; 2.8 penflufen and prochloraz, read-out: MIC (ppm) Coniophora puteana) of 3 µg/mL and an MIC (Coriolus versicolor [1]; 2.10 penflufen and cypermethrin, read-out: MIC (ppm) Coriolus versicolor) of 0.1 µg/mL. For the same compound, the MIC (Coriolus versicolor [1]; [16]) was 0.3 µg/mL, the MIC (Coriolus versicolor [1]; [15]) was 0.1 µg/mL and the MIC (Poria placenta [2]; 2.10 penflufen and cypermethrin, read-out: MIC (ppm) Poria placenta) was 0.1 µg/mL. The MIC (Poria placenta [2]; [13]) was 0.1 µg/mL, the “MIC against Poria placenta (ppm)” value (Poria placenta [2]; 2.7 penflufen and etofenprox) was 0.1 ppm and the MIC (Stereum sanguinolentum) was 3 µg/mL. For the same compound, the MIC (Gloeophyllum trabeum [12]) was 0.3 µg/mL, the inhibition at 1 ppm (Lentinus tigrinus [4]) was 100% and the inhibition at 1 ppm (Coniophora puteana [5]) was 100%. It also gave an inhibition at 1 ppm (Gloeophyllum trabeum [6]) of 100%, an inhibition at 1 ppm (Coriolus versicolor [7]) of 100% and an inhibition at 1 ppm (Poria placenta [8]) of 100%.
CC(Cc1ccc(C(C)(C)C)cc1)CN1C[C@@H](C)O[C@@H](C)C1 (stereo partly shown) [fenpropimorph, reference compound] was tested, and the MIC (Lentinus tigrinus [9]; [19]) was 30 µg/mL and the MIC (Coniophora puteana [3]; [20]) was 30 µg/mL.
